According to ChEMBL document CHEMBL2203270, “POMA analyses as new efficient bioinformatics' platform to predict and optimise bioactivity of synthesized 3a,4-dihydro-3H-indeno[1,2-c]pyrazole-2-carboxamide/carbothioamide analogues” (Bioorg Med Chem Lett, 2012):
In brackets after ≈: the same amount, converted by molar mass. Activity calls are given as the source filed them. The calls are words filed in the database; no cut-off is given here.

Legend:
[1] = system: Staphylococcus aureus; assay: microbe, parasite or virus in culture; details: NCIM 2079
Description: Antimicrobial activity against Staphylococcus aureus NCIM 2079 by disc-diffusion method

[2] = system: Bacillus subtilis; assay: Antimicrobial activity against Bacillus subtilis NCIM 2439 by disc-diffusion method; type: functional
[3] = system: Pseudomonas aeruginosa; assay: microbe, parasite or virus in culture; details: ATCC 10145
[4] = system: Escherichia coli; assay: microbe, parasite or virus in culture; details: NCIM 5051
Description: Antimicrobial activity against Escherichia coli NCIM 5051 by disc-diffusion method

[5] = system: Mus musculus; assay: Anticonvulsant activity in mouse assessed as protection against clonic seizure at 100 mg/kg, ip measured at 0.25 hr; type: functional
[6] = system: Human immunodeficiency virus 1; assay: Antiviral activity against HIV-1 3B infected in MT4 cells assessed as protection against virus-induced cytopathicity relative to control; type: functional; details: Human immunodeficiency virus 1, 3B
[7] = system: Mus musculus; assay: Anticonvulsant activity in mouse assessed as protection against clonic seizure at 100 mg/kg, ip measured at 4 hr; type: functional, organism-based; set-up: dose 100 mg/kg
[8] = system: Mus musculus; assay: Anticonvulsant activity in mouse assessed as protection against clonic seizure at 100 mg/kg, ip measured at 2 hr; type: functional, organism-based; set-up: dose 100 mg/kg
[9] = system: Mus musculus; assay: Neurotoxicity in mouse assessed as minimal motor impairment at 100 mg/kg, ip measured at 0.25 hr by rotarod test; type: toxicity, organism-based; set-up: dose 100 mg/kg, route intraperitoneal; details: in vivo
[10] = system: Mus musculus; assay: Neurotoxicity in mouse assessed as minimal motor impairment at 100 mg/kg, ip measured at 0.5 hr by rotarod test; type: toxicity, organism-based; set-up: dose 100 mg/kg, route intraperitoneal; details: in vivo
[11] = system: Human immunodeficiency virus 2; assay: Antiviral activity against HIV-2 ROD infected in MT4 cells assessed as protection against virus-induced cytopathicity relative to control; type: functional; details: Human immunodeficiency virus 2, ISOLATE ROD
[12] = system: Mus musculus; assay: Neurotoxicity in mouse assessed as minimal motor impairment at 100 mg/kg, ip measured at 2 hr by rotarod test; type: toxicity, organism-based; set-up: dose 100 mg/kg, route intraperitoneal; details: in vivo
[13] = Cytotoxicity against mock-infected human MT4 cells assessed as decrease in cell viability by MTT assay; type: cell-based
[14] = system: Mus musculus; assay: Neurotoxicity in mouse assessed as minimal motor impairment at 100 mg/kg, ip measured at 4 hr by rotarod test; type: toxicity, organism-based; set-up: dose 100 mg/kg, route intraperitoneal; details: in vivo
[15] = system: Mus musculus; assay: Anticonvulsant activity in mouse assessed as protection against clonic seizure at 100 mg/kg, ip measured at 1 hr; type: functional
[16] = system: Mus musculus; assay: Neurotoxicity in mouse assessed as minimal motor impairment at 100 mg/kg, ip measured at 1 hr by rotarod test; type: toxicity, organism-based; set-up: dose 100 mg/kg, route intraperitoneal; details: in vivo
[17] = system: Mus musculus; assay: Anticonvulsant activity in mouse assessed as protection against clonic seizure at 100 mg/kg, ip measured at 0.5 hr; type: functional
[18] = system: Human immunodeficiency virus 2; assay: Antiviral activity against HIV-2 ROD infected in MT4 cells assessed as inhibition of virus-induced cytopathicity; type: functional, organism-based; details: Human immunodeficiency virus 2, ISOLATE ROD
[19] = system: Human immunodeficiency virus 1; assay: Antiviral activity against HIV-1 3B infected in MT4 cells assessed as inhibition of virus-induced cytopathicity; type: functional, organism-based; details: Human immunodeficiency virus 1, 3B
[20] = system: Staphylococcus aureus; assay: Antimicrobial activity against Staphylococcus aureus NCIM 2079 by broth dilution technique; type: functional
[21] = system: Pseudomonas aeruginosa; assay: Antimicrobial activity against Pseudomonas aeruginosa ATCC 10145 by broth dilution technique; type: functional
[22] = system: Escherichia coli; assay: Antimicrobial activity against Escherichia coli NCIM 5051 by broth dilution technique; type: functional
[23] = system: Bacillus subtilis; assay: Antimicrobial activity against Bacillus subtilis NCIM 2439 by broth dilution technique; type: functional
[24] = system: Aspergillus niger; assay: Antimicrobial activity against Aspergillus niger NCIM 1196 by broth dilution technique; type: functional
[25] = system: Candida albicans; assay: Antimicrobial activity against Candida albicans NCIM 3471 by broth dilution technique; type: functional
[26] = system: Aspergillus niger; assay: Antimicrobial activity against Aspergillus niger NCIM 1196 by agar diffusion method; type: functional
[27] = system: Candida albicans; assay: Antimicrobial activity against Candida albicans NCIM 3471 by agar diffusion method; type: functional

Row | Structure (SMILES) | Emax [6] | Activity [7] | Activity [8] | Activity [9] | Activity [10] | Emax [11] | Activity [12] | CC50 [13] | Activity [14] | Activity [16] | IC50 [18] | IC50 [19] | further results
1 | O=C(O)c1cn(C2CC2)c2cc(N3CCNCC3)c(F)cc2c1=O [CIPROFLOXACIN] | – | – | – | – | – | – | – | – | – | – | – | – | MBC [1]: 8 µg/mL (≈ 24.1 µM); MIC [1]: 4 µg/mL (≈ 12.1 µM); MBC [2]: 8 µg/mL (≈ 24.1 µM); MIC [2]: 4 µg/mL (≈ 12.1 µM); MBC [3]: 8 µg/mL (≈ 24.1 µM); MIC [3]: 4 µg/mL (≈ 12.1 µM); MBC [4]: 4 µg/mL (≈ 12.1 µM)
2 | COc1cc2c(cc1OC)C1=NN(C(=O)Nc3ccc(Cl)cc3)C(c3ccc(F)cc3)C1C2 (configuration not stated) | 2% | inactive | inactive | Non-toxic | Non-toxic | 2% | Non-toxic | 25.8 µM | Non-toxic | Non-toxic | > 25.8 µM | > 25.8 µM | Activity ([5]; route intraperitoneal): 100%; Activity ([15]; route intraperitoneal): 75%; Activity ([17]; route intraperitoneal): 100%
3 | COc1cc2c(cc1OC)C1=NN(C(=O)Nc3ccc(F)c(Cl)c3)C(c3ccccc3Cl)C1C2 (configuration not stated) | 5% | inactive | inactive | Non-toxic | Non-toxic | 1% | Non-toxic | 11.8 µM | Non-toxic | Toxic | > 11.8 µM | > 11.8 µM | Activity ([5]; route intraperitoneal): 75%; Activity [15]: inactive; Activity [17]: inactive
4 | COc1cc2c(cc1OC)C1=NN(C(=O)Nc3ccc(F)c(Cl)c3)C(c3ccccc3)C1C2 (configuration not stated) | 7% | inactive | inactive | Non-toxic | Non-toxic | 10% | Non-toxic | 35.8 µM | Non-toxic | Non-toxic | > 35.8 µM | > 35.8 µM | Activity ([5]; route intraperitoneal): 50%; Activity [15]: inactive; Activity [17]: inactive
5 | COc1ccc(C2C3Cc4cc(OC)c(OC)cc4C3=NN2C(=O)Nc2ccc(F)c(Cl)c2)cc1OC (configuration not stated) | 12% | inactive | inactive | Non-toxic | Non-toxic | 38% | Non-toxic | 223 µM | Non-toxic | Non-toxic | > 223 µM | > 223 µM | Activity [5]: inactive; Activity ([15]; route intraperitoneal): 50%; Activity ([17]; route intraperitoneal): 50%
6 | COc1cc2c(cc1OC)C1=NN(C(=O)Nc3ccc(Cl)cc3)C(c3ccccc3Cl)C1C2 (configuration not stated) | 2% | inactive | inactive | Non-toxic | Non-toxic | 2% | Non-toxic | 22.9 µM | Non-toxic | Non-toxic | > 22.9 µM | > 22.9 µM | Activity [5]: inactive; Activity ([15]; route intraperitoneal): 50%; Activity ([17]; route intraperitoneal): 75%
7 | COc1cc2c(cc1OC)C1=NN(C(N)=O)C(c3ccc(F)cc3)C1C2 (configuration not stated) | 3% | – | – | – | – | 9% | – | 151 µM | – | – | > 151 µM | > 151 µM | MBC [20]: 16 µg/mL (≈ 45 µM); MIC [20]: 8 µg/mL (≈ 22.5 µM); MBC [21]: 16 µg/mL (≈ 45 µM); MIC [21]: 8 µg/mL (≈ 22.5 µM); MBC [22]: 16 µg/mL (≈ 45 µM); MIC [22]: 8 µg/mL (≈ 22.5 µM); MBC [23]: 16 µg/mL (≈ 45 µM); MIC [23]: 8 µg/mL (≈ 22.5 µM); MFC [24]: > 512 µg/mL; MIC [24]: 128 µg/mL (≈ 360 µM); MFC [25]: > 512 µg/mL; MIC [25]: 128 µg/mL (≈ 360 µM)
8 | COc1ccc(C2C3Cc4cc(OC)c(OC)cc4C3=NN2C(N)=O)cc1OC (configuration not stated) | 6% | – | – | – | – | 30% | – | 151 µM | – | – | > 151 µM | > 151 µM | MBC [20]: > 512 µg/mL; MIC [20]: 128 µg/mL (≈ 322 µM); MBC [21]: > 512 µg/mL; MIC [21]: 128 µg/mL (≈ 322 µM); MBC [22]: > 512 µg/mL; MIC [22]: 64 µg/mL (≈ 161 µM); MBC [23]: > 512 µg/mL; MIC [23]: 128 µg/mL (≈ 322 µM); MFC [24]: 512 µg/mL (≈ 1290 µM); MIC [24]: 32 µg/mL (≈ 80.5 µM); MFC [25]: 512 µg/mL (≈ 1290 µM); MIC [25]: 32 µg/mL (≈ 80.5 µM)
9 | OC(Cn1cncn1)(Cn1cncn1)c1ccc(F)cc1F [FLUCONAZOLE] | – | – | – | – | – | – | – | – | – | – | – | – | MFC [26]: 2 µg/mL (≈ 6.53 µM); MIC [26]: 2 µg/mL (≈ 6.53 µM); MFC [27]: 2 µg/mL (≈ 6.53 µM); MIC [27]: 1 µg/mL (≈ 3.27 µM)
10 | COc1ccc(C2C3Cc4cc(OC)c(OC)cc4C3=NN2C(N)=S)cc1OC (configuration not stated) | 4% | – | – | – | – | 11% | – | 158 µM | – | – | > 158 µM | > 158 µM | MBC [20]: > 512 µg/mL; MIC [20]: 128 µg/mL (≈ 310 µM); MBC [21]: > 512 µg/mL; MIC [21]: 128 µg/mL (≈ 310 µM); MBC [22]: > 512 µg/mL; MIC [22]: 64 µg/mL (≈ 155 µM); MBC [23]: > 512 µg/mL; MIC [23]: 128 µg/mL (≈ 310 µM); MFC [24]: 512 µg/mL (≈ 1240 µM); MIC [24]: 16 µg/mL (≈ 38.7 µM); MFC [25]: 512 µg/mL (≈ 1240 µM); MIC [25]: 16 µg/mL (≈ 38.7 µM)
11 | COc1cc2c(cc1OC)C1=NN(C(=O)Nc3ccc(F)c(Cl)c3)C(c3ccc(F)cc3)C1C2 (configuration not stated) | 2% | inactive | inactive | Non-toxic | Non-toxic | 7% | Non-toxic | 179 µM | Non-toxic | Non-toxic | > 179 µM | > 179 µM | Activity [5]: inactive; Activity [15]: inactive; Activity [17]: inactive
